US20180282271A1, “ANTIBIOTIC AMINO ACID MIMETICS” (priority 2017, published 2018)
Values after ≈ are worked out from the molar mass of the structure shown.

Assays:
[1] = test system: Pseudomonas aeruginosa MMX 103/ATCC 27853; conditions: CLSI QC ranges shown in parenthesis; cited from earlier work
[2] = test system: Enterococcus faecalis MMX 101/ATCC 29212; experiment: Broth microdilution MIC, standard CLSI media, ATCC QC organism; type: cell-based
Protocol: (§1) The test organisms were originally received from clinical sources or from the American Type Culture Collection (ATCC, Manassas, Va.). When received, the organisms were subcultured onto an appropriate agar medium. Following incubation, colonies were harvested from the plate and a cell suspension was prepared in broth containing cryoprotectant and frozen at −80° C. Prior to the assay, a frozen vial of the culture was partially thawed and the contents were streaked for isolation onto an appropriate growth medium. The agar plates were incubated overnight at 35° C. Test organisms included staphylococci and enterococci (Table 1), streptococci (Table 2), Enterobacteriaceae (Table 3), lactose non-fermenting Gram-negative bacilli (Table 4), Haemophilus influenzae (Table 5), Neisseria gonorrhoeae (Table 5), and Clostridium difficile (Table 6).
(§2) The standard CLSI broth medium was employed for the purposes of quality control of the comparator drugs for the MIC assay and was only used for testing of relevant ATCC quality control isolates as established by CLSI (1-5).
(§3) MIC values were determined using a broth microdilution method as recommended by CLSI (1-5).
(§4) Column 1 was filled with 300 μL of the investigational and control agents at the appropriate stock concentration (40× of the highest test concentration). The Biomek 2000 was used to make eleven 2-fold serial dilutions to create a “mother plate.” The wells of column 12 contained no drug and served as growth control wells.
(§5) The daughter plates were prepared on the Biomek FX instrument which transferred 5 μL of drug solution from each well of the mother plate to the corresponding well of each daughter plate in a single step.
(§6) Standardized inoculum of each organism was prepared per CLSI methods (1-5). The inoculum for each organism was dispensed into sterile reservoirs divided by length (Beckman Coulter), and the Biomek 2000 was used to inoculate the plates. Daughter plates were placed on the Biomek 2000 work surface reversed so that inoculation took place from low to high drug concentration. The Biomek 2000 delivered 10 PL of standardized inoculum into each well resulting in a target inoculum size of approximately 5×10^5 CFU/mL. The wells of the daughter plates ultimately contained 185 μL of media, 5 μL of drug solution at 40× the test concentration, and 10 μL of bacterial inoculum prepared in media.
(§7) Plates were stacked 3-4 high, covered with a lid on the top plate, placed into plastic bags, and incubated at 35° C. under the appropriate conditions, with C. difficile incubated anaerobically. Plates were viewed post-incubation at 18-24 hr and again at 48 hr from the bottom using a plate viewer. […] MICs were read where visible growth of the organism was inhibited.

[3] = test system: Streptococcus pneumoniae MMX 1195/ATCC 49619; experiment: as above; type: cell-based
Protocol: as §1, §2, §3, §4, §5, §6, §7

[4] = test system: Haemophilus influenzae MMX 1224/ATCC 49247; experiment: as above; type: cell-based
Protocol: as §1, §2, §3, §4, §5, §6, §7

[5] = test system: Pseudomonas aeruginosa MMX 103/ATCC 27853; experiment: as above; type: cell-based
Protocol: as §1, §2, §3, §4, §5, §6, §7

[6] = test system: Staphylococcus aureus MMX 100/ATCC 29213; experiment: as above; type: cell-based
Protocol: as §1, §2, §3, §4, §5, §6, §7

[7] = test system: Escherichia coli MMX 102/ATCC 25922; experiment: as above; type: cell-based
Protocol: as §1, §2, §3, §4, §5, §6, §7

[8] = test system: Neisseria gonorrhoeae MMX 683/ATCC 49226; experiment: as above; type: cell-based
Protocol: as §1, §2, §3, §4, §5, §6, §7

[9] = test system: Escherichia coli MMX 102/ATCC 25922; conditions: CLSI QC ranges shown in parenthesis; cited from earlier work
[10] = test system: Haemophilus influenzae MMX 1224/ATCC 49247; conditions: CLSI QC ranges shown in parenthesis; cited from earlier work
[11] = test system: Staphylococcus aureus MMX 100/ATCC 29213; conditions: CLSI QC ranges shown in parenthesis; cited from earlier work
[12] = test system: Enterococcus faecalis MMX 101/ATCC 29212; conditions: CLSI QC ranges shown in parenthesis; cited from earlier work
[13] = test system: Clostridium difficile MMX 4381/ATCC 700057; experiment: Broth microdilution MIC, standard CLSI media, ATCC QC organism; type: cell-based; conditions: Clostridioides difficile, ATCC700057, 48 hr results
Protocol: as §1, §2, §3, §4, §5, §6, §7

[14] = test system: Streptococcus pneumoniae MMX 1195/ATCC 49619; conditions: CLSI QC ranges shown in parenthesis; cited from earlier work

**Q.** Which “CLSI QC range of MIC” value [1] does the source give for CO/N=C(\C(=O)N[C@@H]1C(=O)N2C(C(=O)[O-])=C(C[N+]3(C)CCCC3)CS[C@H]12)c1csc(N)n1 [FEP, cefepime] here?
**A.** (1-4) μg/mL

**Q.** And the MIC ([2]; ATCC29212, 24 hr results)?
**A.** > 64 µg/mL

**Q.** What about the MIC ([2]; ATCC29212, 48 hr results) of the same molecule?
**A.** > 64 µg/mL

**Q.** What about the MIC ([3]; ATCC49619, 24 hr results) of the same molecule?
**A.** 0.5 µg/mL (≈ 1.04 µM)

**Q.** And the MIC ([3]; ATCC49619, 48 hr results)?
**A.** 0.5 µg/mL (≈ 1.04 µM)

**Q.** What about the MIC ([4]; ATCC49247, 24 hr results) of the same molecule?
**A.** 0.25 µg/mL (≈ 0.52 µM)

**Q.** And the MIC ([4]; ATCC49247, 48 hr results)?
**A.** 0.25 µg/mL (≈ 0.52 µM)

**Q.** And the MIC ([5]; ATCC27853, 24 hr results)?
**A.** 1 µg/mL (≈ 2.08 µM)

**Q.** And the MIC ([5]; ATCC27853, 48 hr results)?
**A.** 2 µg/mL (≈ 4.16 µM)

**Q.** And the MIC ([6]; ATCC29213, 24 hr results)?
**A.** 16 µg/mL (≈ 33.3 µM)

**Q.** And the MIC ([6]; ATCC29213, 48 hr results)?
**A.** 16 µg/mL (≈ 33.3 µM)

**Q.** What about the MIC ([7]; ATCC25922, 24 hr results) of the same molecule?
**A.** 0.25 µg/mL (≈ 0.52 µM)

**Q.** And the MIC ([7]; ATCC25922, 48 hr results)?
**A.** 0.25 µg/mL (≈ 0.52 µM)

**Q.** And the MIC ([8]; ATCC49226, 24 hr results)?
**A.** 16 µg/mL (≈ 33.3 µM)

**Q.** And the MIC ([8]; ATCC49226, 48 hr results)?
**A.** 32 µg/mL (≈ 66.6 µM)

**Q.** What about the “CLSI QC range of MIC” value [9] of the same molecule?
**A.** (0.06-0.5) μg/mL

**Q.** What about the “CLSI QC range of MIC” value [10] of the same molecule?
**A.** (0.12-1) μg/mL

**Q.** And the “CLSI QC range of MIC” value [11]?
**A.** (4-16) μg/mL

**Q.** What does the source list for C[C@@H](O)[C@H]1C(=O)N2C(C(=O)O)=C(S[C@@H]3CN[C@H](C(=O)N(C)C)C3)[C@H](C)[C@H]12 [MEM, meropenem]?
**A.** CLSI QC range of MIC [12]: (2-8) μg/mL; CLSI QC range of MIC [1]: (0.25-1) μg/mL; MIC ([2]; ATCC29212, 24 hr results): 4 µg/mL (≈ 10.4 µM); MIC ([2]; ATCC29212, 48 hr results): > 4 µg/mL; MIC ([3]; ATCC49619, 24 hr results): 0.06 µg/mL (≈ 0.156 µM); MIC ([3]; ATCC49619, 48 hr results): 0.06 µg/mL (≈ 0.156 µM); MIC ([4]; ATCC49247, 24 hr results): 0.06 µg/mL (≈ 0.156 µM); MIC ([4]; ATCC49247, 48 hr results): 0.06 µg/mL (≈ 0.156 µM); MIC ([5]; ATCC27853, 24 hr results): 0.5 µg/mL (≈ 1.3 µM); MIC ([5]; ATCC27853, 48 hr results): 1 µg/mL (≈ 2.61 µM); MIC ([6]; ATCC29213, 24 hr results): 0.06 µg/mL (≈ 0.156 µM); MIC ([6]; ATCC29213, 48 hr results): 0.12 µg/mL (≈ 0.313 µM); MIC ([7]; ATCC25922, 24 hr results): 0.03 µg/mL (≈ 0.0782 µM); MIC ([7]; ATCC25922, 48 hr results): 0.03 µg/mL (≈ 0.0782 µM); MIC ([8]; ATCC49226, 24 hr results): > 4 µg/mL; MIC ([8]; ATCC49226, 48 hr results): > 4 µg/mL; MIC [13]: 1 µg/mL (≈ 2.61 µM); CLSI QC range of MIC [9]: (0.008-0.06) μg/mL; CLSI QC range of MIC [14]: (0.03-0.25) μg/mL; CLSI QC range of MIC [11]: (0.03-0.12) μg/mL
